In the supplement of paper PMC10307832:

Tests used:
Experiment in all cases: relative viability (nuclei count vs DMSO), 5 days (fraction); higher = more cells survive
RO-3306 = compound: C1=CC2=C(C=CC(=C2)C=C3C(=O)NC(=NCC4=CC=CS4)S3)N=C1 [RO-3306]
Method in brief: (§1)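 Following overnight incubation at 37 °C, lung cancer cell lines in 1536-well plates were pinned with five library-drug doses (not always all listed) in √10 steps on vehicle-anchored plates. The cells then spent 5 days without medium change before a combined fix, permeabilisation and Hoechst stain, 4× imaging and MetaXpress nuclear counts. Viability is the treated-to-vehicle ratio of nuclei, taken as the median across plates. Only plates with control CV below 25% and at least one doubling passed.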

Foretinib = compound: COc1cc2c(Oc3ccc(NC(=O)C4(C(=O)Nc5ccc(F)cc5)CC4)cc3F)ccnc2cc1OCCCN1CCOCC1 [Foretinib] (anchor plate); conditions: 0.25 µM
Method in brief: as §1

[1] = compound: O=S(=O)(c1ccccc1)N(CC(F)(F)F)c1ccc(C(O)(C(F)(F)F)C(F)(F)F)cc1
Method in brief: as §1

RO-3306 + Linsitinib = compound: C1=CC2=C(C=CC(=C2)C=C3C(=O)NC(=NCC4=CC=CS4)S3)N=C1 [RO-3306] + C[C@]1(O)C[C@@H](c2nc(-c3ccc4ccc(-c5ccccc5)nc4c3)c3c(N)nccn32)C1 [Linsitinib] (partner 1 µM)
Method in brief: (§2)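 Medians of duplicate plates are given as relative viability. That measure is the nuclei count in treated wells divided by the count in vehicle wells. Counts were taken on 4× images of lung cancer cell lines in 1536-well plates, 5 days after pin-tool dosing the day after seeding with one drug alone or a fixed anchor-drug dose plus five library-drug doses (not always all listed) in √10 steps.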

[2] = compound: O=S(=O)(c1ccccc1)N(CC(F)(F)F)c1ccc(C(O)(C(F)(F)F)C(F)(F)F)cc1 + Cc1cc(Nc2cc(N3CCN(C)CC3)nc(Sc3ccc(NC(=O)C4CC4)cc3)n2)n[nH]1 [Tozasertib] (partner 0.1 µM)
Method in brief: as §2

[3] = compound: O=S(=O)(c1ccccc1)N(CC(F)(F)F)c1ccc(C(O)(C(F)(F)F)C(F)(F)F)cc1 + N=C(N)NC(=N)NCCc1ccccc1 [Phenformin] (partner 250 µM)
Method in brief: as §2

Cell Line | relative viability (RO-3306; 0.01 µM) | relative viability (RO-3306; 0.03162 µM) | relative viability (RO-3306; 0.1 µM) | relative viability (RO-3306; 0.3162 µM) | relative viability (RO-3306; 1 µM) | relative viability (Foretinib) | relative viability ([1]; 0.8 µM) | relative viability ([1]; 2.53 µM) | relative viability ([1]; 8 µM) | relative viability (RO-3306 + Linsitinib; first compound 0.01 µM) | relative viability (RO-3306 + Linsitinib; first compound 0.03162 µM) | relative viability (RO-3306 + Linsitinib; first compound 0.1 µM) | relative viability (RO-3306 + Linsitinib; first compound 0.3162 µM) | relative viability (RO-3306 + Linsitinib; first compound 1 µM) | relative viability ([2]; first compound 0.8 µM) | relative viability ([2]; first compound 2.53 µM) | relative viability ([2]; first compound 8 µM) | relative viability ([3]; first compound 0.8 µM) | relative viability ([3]; first compound 2.53 µM) | relative viability ([3]; first compound 8 µM)
201T | 1.06 | 0.969 | 0.956 | 0.987 | 0.746 | 1.16 | 1.02 | 0.928 | 1.06 | 1.11 | 1.01 | 1.08 | 1.09 | 0.999 | 0.927 | 0.854 | 0.863 | 0.451 | 0.41 | 0.503
A549 | 1.13 | 0.811 | 0.994 | 1 | 1.05 | 0.951 | 1.07 | 0.914 | 0.886 | 0.762 | 0.305 | 0.622 | 0.69 | 0.623 |  |  |  | 0.17 | 0.159 | 0.186
A-427 | 1.06 | 0.94 | 1 | 1.02 | 0.574 | 1.08 | 1.08 | 0.929 | 1.21 | 1.14 | 1.1 | 1.07 | 1.06 | 1.21 | 0.186 | 0.216 | 0.298 | 0.286 | 0.254 | 0.326
ABC-1 | 0.94 | 0.769 | 0.901 | 0.887 | 0.817 | 1.07 | 0.758 | 0.843 | 1.03 | 0.906 | 0.58 | 0.697 | 0.907 | 0.792 | 0.172 | 0.19 | 0.202 | 0.238 | 0.246 | 0.335
BEN | 0.903 | 0.888 | 0.894 | 1.03 | 0.976 | 0.668 | 0.991 | 0.895 | 0.87 | 1.03 | 0.672 | 0.835 | 0.972 | 0.916 | 0.615 | 0.549 | 0.508 | 0.262 | 0.249 | 0.283
CAL-12T | 1.01 | 0.884 | 0.906 | 0.977 | 1.07 | 1.13 | 0.88 | 0.804 | 0.811 | 0.889 | 0.607 | 0.889 | 0.824 | 0.874 | 0.299 | 0.331 | 0.242 | 0.512 | 0.471 | 0.464
COR-L23 | 1.03 | 0.892 | 1.04 | 1.04 | 1.14 | 0.949 | 1.13 | 0.921 | 0.858 | 1.02 |  | 0.866 | 0.938 | 1.06 | 0.159 | 0.152 | 0.164 | 0.452 | 0.451 | 0.427
COR-L 105 | 0.859 | 0.784 | 0.798 | 0.906 | 0.948 | 1.07 | 0.947 | 0.786 | 0.918 | 1.08 | 0.912 | 0.923 | 1.08 | 0.861 | 0.337 | 0.342 | 0.435 | 0.455 | 0.422 | 0.492
Calu-6 | 1.12 | 0.893 | 1.02 | 1 | 1.06 | 0.861 | 0.982 | 0.876 | 0.858 | 1.1 | 0.695 | 0.978 | 0.997 | 1.15 |  |  |  |  |  | 
ChaGo-K-1 | 1.03 | 0.933 | 1.01 | 1.04 | 0.699 | 0.921 | 1.14 | 0.998 | 1.06 |  |  |  |  |  | 0.225 | 0.209 | 0.235 | 0.517 | 0.52 | 0.474
EBC-1 | 1.04 | 0.807 | 1.01 | 1.14 | 1.01 | 0.108 | 0.934 | 0.769 | 0.721 | 1.03 | 0.556 | 0.977 | 1.15 | 1.05 |  |  |  |  |  | 
EKVX | 1 | 0.888 | 1 | 1.03 | 0.915 | 0.886 | 0.93 | 0.893 | 0.836 | 1.13 | 0.678 | 1.07 | 1.21 | 0.78 | 0.405 | 0.344 | 0.325 | 0.226 | 0.199 | 0.228
EMC-BAC-2 | 0.943 | 0.844 | 0.915 | 1.12 | 0.616 | 1.02 | 0.996 | 1.01 | 0.966 | 0.901 | 0.678 | 0.797 | 0.851 | 0.773 | 0.293 | 0.284 | 0.28 | 0.701 | 0.493 | 0.557
EPLC-272H | 0.866 | 0.73 | 0.921 | 0.901 | 0.791 | 0.723 | 0.942 | 0.929 | 0.982 | 1.2 | 0.768 | 1.24 | 1.04 | 0.96 | 0.366 | 0.379 | 0.312 | 0.273 | 0.304 | 0.269
H3255 | 1.02 | 0.913 | 0.995 | 0.946 | 0.93 | 0.881 | 0.913 | 0.808 | 0.84 | 1.17 | 0.814 | 1.01 | 0.918 | 0.945 | 0.629 | 0.663 | 0.66 | 0.382 | 0.373 | 0.393
HARA | 0.96 | 0.909 | 0.886 | 0.985 | 1.03 | 0.959 | 0.933 | 0.803 | 0.962 | 0.861 | 0.789 | 0.902 | 1.02 | 1.35 | 0.0946 | 0.0891 | 0.102 | 0.438 | 0.357 | 0.304
